≈ marks a conversion by molar mass, not a printed value.
Legend:
Experiment in all cases: in vitro antibacterial activity, standard agar dilution method
Type in all cases: cell-based
[1] = tested on: Escherichia coli NIHJ JC-2; conditions: NIHJJC2, aerobic, read-out: minimum inhibitory concentration (MIC)
[2] = tested on: Staphylococcus aureus FDA 209P JC-1; conditions: FDA209P; Staphylococcus aureus FDA 209P JC-1; aerobic; agar dilution; read-out: minimum inhibitory concentration (MIC)
[3] = tested on: Enterobacter cloacae NR 2946; conditions: NR2946, aerobic, read-out: minimum inhibitory concentration (MIC)
[4] = tested on: Bacillus subtilis PCI 219; conditions: PCI219, aerobic, read-out: minimum inhibitory concentration (MIC)
[5] = tested on: Enterococcus faecalis NR 2943; conditions: NR2943, aerobic, read-out: minimum inhibitory concentration (MIC)
[6] = tested on: Staphylococcus epidermidis NR 2942; conditions: NR2942, aerobic, read-out: minimum inhibitory concentration (MIC)
[7] = tested on: Escherichia coli NR 2630; conditions: NR2630; Escherichia coli NR 2630; aerobic; agar dilution; read-out: minimum inhibitory concentration (MIC)
[8] = tested on: Pseudomonas aeruginosa NR 2950; conditions: NR2950, aerobic, read-out: minimum inhibitory concentration (MIC)
[9] = tested on: Enterobacter aerogenes NR 2945; conditions: Klebsiella aerogenes, NR2945, aerobic, read-out: minimum inhibitory concentration (MIC)
[10] = tested on: Staphylococcus epidermidis IFO 12993; conditions: IFO12993, aerobic, read-out: minimum inhibitory concentration (MIC)
[11] = tested on: Alcaligenes faecalis IFO 13111; conditions: IFO13111, aerobic, read-out: minimum inhibitory concentration (MIC)
[12] = tested on: Klebsiella pneumoniae FDA PCI 602; conditions: FDAPCI602, aerobic, read-out: minimum inhibitory concentration (MIC)
[13] = tested on: Proteus rettgeri ATCC 14505; conditions: Providencia rettgeri, ATCC14505, aerobic, read-out: minimum inhibitory concentration (MIC)
[14] = tested on: Bordetella bronchiseptica ATCC 4617; conditions: ATCC4617, aerobic, read-out: minimum inhibitory concentration (MIC)
[15] = tested on: Salmonella typhimurium IFO 12529; conditions: Salmonella enterica, aerobic, read-out: minimum inhibitory concentration (MIC)
[16] = tested on: Citrobacter freundii IFO 12681; conditions: IFO12681, aerobic, read-out: minimum inhibitory concentration (MIC)
[17] = tested on: Staphylococcus aureus Smith; conditions: Staphylococcus aureus Smith; aerobic; agar dilution; read-out: minimum inhibitory concentration (MIC)
[18] = tested on: Serratia marcescens IFO 12648; conditions: IFO12648, aerobic, read-out: minimum inhibitory concentration (MIC)
[19] = tested on: Staphylococcus aureus NR 2855; conditions: NR2855; Staphylococcus aureus NR 2855; aerobic; agar dilution; read-out: minimum inhibitory concentration (MIC)
[20] = tested on: Pseudomonas stutzeri IFO 12695; conditions: Stutzerimonas stutzeri, IFO12695, aerobic, read-out: minimum inhibitory concentration (MIC)
[21] = tested on: Pseudomonas aeruginosa A3; conditions: aerobic, read-out: minimum inhibitory concentration (MIC)
[22] = tested on: Proteus vulgaris OX19 ATCC 6898; conditions: ATCC6898, aerobic, read-out: minimum inhibitory concentration (MIC)

SMILES | MIC [1] | MIC [2] | MIC [3] | MIC [4] | MIC [5] | MIC [6] | MIC [7] | MIC [8] | MIC [9] | MIC [10] | MIC [11] | MIC [12] | MIC [13] | MIC [14] | MIC [15] | MIC [16] | MIC [17] | MIC [18] | MIC [19] | MIC [20] | also measured
CC1Oc2c(N3CCN(C)CC3)c(F)cc3c(=O)c(C(=O)O)cn(c23)N1C (centres unmarked) [Example 26] | 0.78 µg/mL (≈ 2.07 µM) | 3.13 µg/mL (≈ 8.32 µM) | 0.78 µg/mL (≈ 2.07 µM) | 0.78 µg/mL (≈ 2.07 µM) | 25 µg/mL (≈ 66.4 µM) | 3.13 µg/mL (≈ 8.32 µM) | 0.2 µg/mL (≈ 0.531 µM) | 50 µg/mL (≈ 133 µM) | 0.2 µg/mL (≈ 0.531 µM) | 3.13 µg/mL (≈ 8.32 µM) | 12.5 µg/mL (≈ 33.2 µM) | 3.13 µg/mL (≈ 8.32 µM) | 6.25 µg/mL (≈ 16.6 µM) | 12.5 µg/mL (≈ 33.2 µM) | 0.78 µg/mL (≈ 2.07 µM) | 0.78 µg/mL (≈ 2.07 µM) | 3.13 µg/mL (≈ 8.32 µM) | 1.56 µg/mL (≈ 4.14 µM) | 1.56 µg/mL (≈ 4.14 µM) | 0.78 µg/mL (≈ 2.07 µM) | MIC [21]: 6.25 µg/mL (≈ 16.6 µM); MIC [22]: 0.39 µg/mL (≈ 1.04 µM)
CCNC1CCN(c2c(F)cc3c(=O)c(C(=O)O)cn4c3c2OCN4C)C1 (centres unmarked) [Example 32] | 0.1 µg/mL (≈ 0.266 µM) | 0.2 µg/mL (≈ 0.531 µM) | 0.1 µg/mL (≈ 0.266 µM) | 0.05 µg/mL (≈ 0.133 µM) | 6.25 µg/mL (≈ 16.6 µM) | 0.39 µg/mL (≈ 1.04 µM) | 0.025 µg/mL (≈ 0.0664 µM) | 3.13 µg/mL (≈ 8.32 µM) | 0.025 µg/mL (≈ 0.0664 µM) | 0.39 µg/mL (≈ 1.04 µM) | 1.56 µg/mL (≈ 4.14 µM) | 0.39 µg/mL (≈ 1.04 µM) | 1.56 µg/mL (≈ 4.14 µM) | 1.56 µg/mL (≈ 4.14 µM) | 0.025 µg/mL (≈ 0.0664 µM) | 0.1 µg/mL (≈ 0.266 µM) | 0.1 µg/mL (≈ 0.266 µM) | 0.39 µg/mL (≈ 1.04 µM) | 0.39 µg/mL (≈ 1.04 µM) | 0.1 µg/mL (≈ 0.266 µM) | MIC [21]: 0.39 µg/mL (≈ 1.04 µM); MIC [22]: 0.025 µg/mL (≈ 0.0664 µM)

Further lines, with some results ahead:

MIC [1] | MIC [2] | MIC [3] | MIC [4] | MIC [5] | MIC [6] | MIC [7] | MIC [8] | MIC [9] | MIC [10] | MIC [11] | MIC [12] | MIC [13] | MIC [14] | MIC [15] | MIC [16] | MIC [17] | MIC [18] | MIC [19] | MIC [20] | SMILES | also measured
0.05 µg/mL (≈ 0.138 µM) | 0.39 µg/mL (≈ 1.08 µM) | 0.05 µg/mL (≈ 0.138 µM) | 0.05 µg/mL (≈ 0.138 µM) | 12.5 µg/mL (≈ 34.5 µM) | 0.39 µg/mL (≈ 1.08 µM) | 0.025 µg/mL (≈ 0.069 µM) | 1.56 µg/mL (≈ 4.31 µM) | 0.025 µg/mL (≈ 0.069 µM) | 0.39 µg/mL (≈ 1.08 µM) | 3.13 µg/mL (≈ 8.64 µM) | 0.2 µg/mL (≈ 0.552 µM) | 0.39 µg/mL (≈ 1.08 µM) | 3.13 µg/mL (≈ 8.64 µM) | 0.025 µg/mL (≈ 0.069 µM) | 0.05 µg/mL (≈ 0.138 µM) | 0.2 µg/mL (≈ 0.552 µM) | 0.2 µg/mL (≈ 0.552 µM) | 0.78 µg/mL (≈ 2.15 µM) | 0.025 µg/mL (≈ 0.069 µM) | CNC1CCN(c2c(F)cc3c(=O)c(C(=O)O)cn4c3c2OCN4C)C1 (centres unmarked) [Example 31] | MIC [21]: 0.2 µg/mL (≈ 0.552 µM); MIC [22]: 0.025 µg/mL (≈ 0.069 µM)
0.1 µg/mL (≈ 0.275 µM) | 0.0016 µg/mL (≈ 0.0044 µM) | 0.2 µg/mL (≈ 0.55 µM) | ≤ 0.0008 µg/mL | 3.13 µg/mL (≈ 8.61 µM) | ≤ 0.0008 µg/mL | ≤ 0.0008 µg/mL | 25 µg/mL (≈ 68.8 µM) | 0.1 µg/mL (≈ 0.275 µM) | 0.025 µg/mL (≈ 0.0688 µM) | 12.5 µg/mL (≈ 34.4 µM) | 3.13 µg/mL (≈ 8.61 µM) | 6.25 µg/mL (≈ 17.2 µM) | 1.56 µg/mL (≈ 4.29 µM) | 0.2 µg/mL (≈ 0.55 µM) | 0.78 µg/mL (≈ 2.15 µM) | ≤ 0.0008 µg/mL | 0.78 µg/mL (≈ 2.15 µM) | ≤ 0.0008 µg/mL | 0.013 µg/mL (≈ 0.0358 µM) | COC1CCN(c2c(F)cc3c(=O)c(C(=O)O)cn4c3c2OCN4C)C1 (centres unmarked) [Example 37, 9-fluoro-10-(3-methoxy-1-pyrrolidinyl)-3-methyl-7-oxo-2,3-dihydro-7H-pyrido[3,2,1-ij]-1,3,4-benzoxadiazine-6-carboxylic acid] | MIC [21]: 6.25 µg/mL (≈ 17.2 µM); MIC [22]: ≤ 0.0008 µg/mL
6.25 µg/mL (≈ 16.6 µM) | 0.39 µg/mL (≈ 1.03 µM) | 6.25 µg/mL (≈ 16.6 µM) | ≤ 0.0008 µg/mL | 12.5 µg/mL (≈ 33.1 µM) | 0.39 µg/mL (≈ 1.03 µM) | 0.39 µg/mL (≈ 1.03 µM) | 50 µg/mL (≈ 132 µM) | 3.13 µg/mL (≈ 8.29 µM) | 0.39 µg/mL (≈ 1.03 µM) | 6.25 µg/mL (≈ 16.6 µM) | 25 µg/mL (≈ 66.2 µM) | 25 µg/mL (≈ 66.2 µM) | 6.25 µg/mL (≈ 16.6 µM) | 6.25 µg/mL (≈ 16.6 µM) | 6.25 µg/mL (≈ 16.6 µM) | 0.1 µg/mL (≈ 0.265 µM) | 12.5 µg/mL (≈ 33.1 µM) | 0.2 µg/mL (≈ 0.53 µM) | 6.25 µg/mL (≈ 16.6 µM) | COC1CCN(c2c(F)cc3c(=O)c(C(=O)O)cn4c3c2OCN4C)CC1 [Example 38, 9-fluoro-10-(4-methoxy-1-piperidyl)-3-methyl-7-oxo-2,3-dihydro-7H-pyrido[3,2,1-ij]-1,3,4-benzoxadiazine-6-carboxylic acid] | MIC [21]: 25 µg/mL (≈ 66.2 µM); MIC [22]: 3.13 µg/mL (≈ 8.29 µM)
